Consider 30 compounds from patent US10597366B2, “Aryl ethers and uses thereof” (Peloton Therapeutics, Inc., priority 2013, dated 2020).

The first assay relates to HIF-2α HIS TAG-PASB Domain. In words: HIF-2α Scintillation Proximity Assay (SPA). The assay is classed as binding. The following applies: compounds listed by structure and IUPAC name. The method, then:
The percent inhibition was determined and IC50 values were calculated using the Dotmatics system based on the following equation: % inhibition=[(high control sample)/(high control low control)]×100.
Regarding `Cc1cc(S(C)(=O)=O)c2c(c1Oc1cc(F)cc(C#N)c1)CCC2O` (stereo not drawn) [3-fluoro-5-(1-hydroxy-5-methyl-7-methylsulfonyl-indan-4-yl)oxy-benzonitrile], the IC50 (commonly the concentration that inhibits the measured activity by half) was greater than 100 µM.

Take `NC(=O)c1c(S(=O)(=O)C(F)F)ccc(Oc2cc(F)cc(Cl)c2)c1Br` [2-bromo-3-(3-chloro-5-fluoro-phenoxy)-6-(difluoromethylsulfonyl)benzamide]: the IC50 is greater than 100 µM.

In turn, `N#Cc1cccc(Oc2ccc(C(F)(F)F)c(Cl)c2N)c1` [3-[2-amino-3-chloro-4-(trifluoromethyl)phenoxy]benzonitrile] gave an IC50 greater than 100 µM.

The compound `CS(=O)(=O)c1ccc(Oc2cc(F)cc(F)c2)c2c1C(NC(=O)c1ccc(F)cc1)C(F)(F)C2` (stereo not drawn) [N-[4-(3,5-difluorophenoxy)-2,2-difluoro-7-methylsulfonyl-indan-1-yl]-4-fluoro-benzamide] showed an IC50 greater than 100 µM.

Take `Cc1c(Oc2cc(F)cc(C#N)c2)ccc(S(=O)(=O)C(F)(F)F)c1/C=C/C(=O)O` [(E)-3-[3-(3-cyano-5-fluoro-phenoxy)-2-methyl-6-(trifluoromethylsulfonyl)phenyl]prop-2-enoic acid]: the IC50 is greater than 100 µM.

Take `CC(C)(C)[S+]([O-])NC1c2c(S(C)(=O)=O)ccc(Oc3cc(F)cc(C#N)c3)c2CC1(F)F` (stereo not drawn) [N-[4-(3-cyano-5-fluoro-phenoxy)-2,2-difluoro-7-methylsulfonyl-indan-1-yl]-2-methyl-propane-2-sulfinamide]: the IC50 was greater than 100 µM.

As for `CC(=O)NC1c2c(S(C)(=O)=O)ccc(Oc3cc(F)cc(F)c3)c2CC1(F)F` (stereo not drawn) [N-[4-(3,5-difluorophenoxy)-2,2-difluoro-7-methylsulfonyl-indan-1-yl]acetamide], the IC50 is greater than 100 µM.

`Cn1cc(Oc2ccc(S(=O)(=O)C(F)(F)F)c3c2CCC3O)cn1` (stereo not drawn) [4-(1-methylpyrazol-4-yl)oxy-7-(trifluoromethylsulfonyl)indan-1-ol] displayed an IC50 greater than 100 µM.

Compound `O=S(=O)(c1ccc(Oc2cccn3cnnc23)c2c1[C@H](O)CC2)C(F)(F)F` [(1R)-4-([1,2,4]triazolo[4,3-a]pyridin-8-yloxy)-7-(trifluoromethylsulfonyl)indan-1-ol] had an IC50 greater than 100 µM.

For `CNc1c(S(=O)(=O)C(F)(F)F)ccc(Oc2cc(F)cc(Cl)c2)c1C#N` [6-(3-chloro-5-fluoro-phenoxy)-2-(methylamino)-3-(trifluoromethylsulfonyl)benzonitrile], the IC50 was greater than 100 µM.

As for `Cc1c(Oc2cc(F)cc(C#N)c2)ccc(S(=O)(=O)C(F)(F)F)c1/C=C/C(=O)OCc1ccccc1` [benzyl (E)-3-[3-(3-cyano-5-fluoro-phenoxy)-2-methyl-6-(trifluoromethylsulfonyl)phenyl]prop-2-enoate], the IC50 was greater than 100 µM.

As for `O=S(=O)(c1ccc(Oc2cc(F)cc(Cl)c2)c(Cl)c1CNC1CCOC1)C(F)F` (stereo not drawn) [N-[[2-chloro-3-(3-chloro-5-fluoro-phenoxy)-6-(difluoromethylsulfonyl)phenyl]methyl]tetra-hydrofuran-3-amine], the half-inhibitory concentration (IC50) was greater than 100 µM.

The compound `CSc1ccc(Oc2cc(F)cc(C#N)c2)c2c1C(=O)CC2` [3-fluoro-5-(7-methylsulfanyl-1-oxo-indan-4-yl)oxy-benzonitrile] had a concentration for half-maximal inhibition (IC50) greater than 100 µM.

`CN(C)Cc1c(S(=O)(=O)C(F)F)ccc(Oc2cc(F)cc(Cl)c2)c1Cl` [1-[2-chloro-3-(3-chloro-5-fluoro-phenoxy)-6-(difluoromethylsulfonyl)phenyl]-N,N-dimethyl-methanamine]: the IC50 was greater than 100 µM.

Regarding `Cc1c(Oc2cc(F)cc(C#N)c2)ccc(S(=O)(=O)C(F)(F)F)c1/C=C/C(N)=O` [(E)-3-[3-(3-cyano-5-fluoro-phenoxy)-2-methyl-6-(trifluoromethylsulfonyl)phenyl]prop-2-enamide], the IC50 was greater than 100 µM.

Turning to `CCCCOC(=O)/C=C/c1c(S(=O)(=O)C(F)(F)F)ccc(Oc2cc(F)cc(C#N)c2)c1C` [butyl (E)-3-[3-(3-cyano-5-fluoro-phenoxy)-2-methyl-6-(trifluoromethylsulfonyl)phenyl]prop-2-enoate], the IC50 was greater than 100 µM.

`COC(=O)c1cc(F)cc(Oc2ccc(S(=O)(=O)C(F)(F)F)cc2Br)c1` [methyl 3-[2-bromo-4-(trifluoromethylsulfonyl)phenoxy]-5-fluoro-benzoate] came in with an IC50 greater than 100 µM.

`N#Cc1cccc(Oc2ccc(S(=O)(=O)C(F)F)c3cccnc23)c1` [3-[[5-(difluoromethylsulfonyl)-8-quinolyl]oxy]benzonitrile] yielded an IC50 greater than 100 µM.

`O=S(=O)(c1ccc(Oc2cc(F)cc(Cl)c2)c2c1C1(CC2)OCCO1)C(F)F` [4′-(3-chloro-5-fluoro-phenoxy)-7′-(difluoromethylsulfonyl]spiro[1,3-dioxolane-2,1′-indane]] showed an IC50 greater than 100 µM.

In turn, `O=C(O)c1cc(F)cc(Oc2ccc(S(=O)(=O)C(F)(F)F)cc2Br)c1` [3-[2-bromo-4-(trifluoromethylsulfonyl)phenoxy]-5-fluoro-benzoic acid] returned an IC50 greater than 100 µM.

In turn, `CC(=O)c1ccc(Oc2cc(F)cc(Cl)c2)c(Br)c1C#N` [6-acetyl-2-bromo-3-(3-chloro-5-fluoro-phenoxy)benzonitrile] had an IC50 greater than 100 µM.

For `NS(=O)(=O)c1cccc(Oc2cc(F)cc(Cl)c2)c1[N+](=O)[O-]` [3-(3-chloro-5-fluoro-phenoxy)-2-nitro-benzenesulfonamide], the IC50 was greater than 100 µM.

`O=C(O)c1cc(S(=O)(=O)C(F)(F)F)ccc1Oc1cc(F)cc(Cl)c1` [2-(3-chloro-5-fluorophenoxy)-5-((trifluoromethyl)sulfonyl)benzoic acid] showed an IC50 greater than 100 µM.

`O=S(=O)(c1ccc(Oc2cc(F)cc(Cl)c2)c(CC(O)CO)c1)C(F)(F)F` (stereo not drawn) [3-[2-(3-chloro-5-fluoro-phenoxy)-5-(trifluoromethylsulfonyl)phenyl]propane-1,2-diol] displayed an IC50 greater than 100 µM.

With `CS(=O)(=O)c1ccc(Oc2cc(C#N)cc(Oc3ccc(S(C)(=O)=O)c4c3CC(F)(F)[C@H]4O)c2)c2c1[C@H](O)C(F)(F)C2` [3,5-bis[[(1S)-2,2-difluoro-1-hydroxy-7-methylsulfonyl-indan-4-yl]oxy]benzonitrile], the IC50 was greater than 100 µM.

Take `N#Cc1cc(F)cc(Oc2ccc(/S(CF)=N/C(=O)C(F)(F)F)c3c2CC[C@H]3O)c1` (stereo partly drawn) [N-((R)-7-(3-cyano-5-fluorophenoxy)-3-hydroxy-2,3-dihydro-1H-inden-4-yl)(fluoromethyl)-λ^4-sulfanylidene)-2,2,2-trifluoroacetamide]: the IC50 is greater than 100 µM.

Turning to `Cc1ccccc1Oc1ccc(S(=O)(=O)C(F)(F)F)cc1Br` [2-bromo-1-(2-methylphenoxy)-4-(trifluoromethylsulfonyl)benzene], the IC50 is greater than 100 µM.

The compound `N#Cc1cc(F)cc(Oc2ccc(S(=O)(=O)C(F)(F)F)c3c2C[C@@H](F)[C@@H]3N)c1` [3-[(1R,2R)-1-amino-2-fluoro-7-(trifluoromethylsulfonyl)indan-4-yl]oxy-5-fluoro-benzonitrile] showed an IC50 greater than 100 µM.

`Cc1cc(Oc2cc(F)cc(C#N)c2)c2c(c1S(C)(=O)=O)C(O)CC2` (stereo not drawn) [3-fluoro-5-(1-hydroxy-6-methyl-7-methylsulfonyl-indan-4-yl)oxy-benzonitrile] gave an IC50 greater than 100 µM.

For the next assay, the system named is 786-O-Hif-Luc cells (luciferase gene driven by multiple HIF responsive elements). The experiment in a line: Luciferase Assay. The assay is classed as cell-based. The following applies: 24 h, 786-O-Hif-Luc cells, about 24 hours; read-out: Mean Luciferease EC50. The procedure:
A pool of infected cells were then selected against 2 μg/mL of puromycin (P8833, Sigma) for 10 days followed by limited dilution to select single clones.
Each concentration was tested in triplicate. After about 24 hours, luciferase activity was determined using ONE-Glo Luciferase Assay Reagent (E6110, Promega) following the manufacturer's recommended procedure. EC50 were calculated by using Dotmatics software.
As to `CS(=O)(=O)c1ccc(Oc2cc(F)cc(C#N)c2)c(C#N)c1Cl` [Compound 152, 2-chloro-6-(3-cyano-5-fluorophenoxy)-3-(methylsulfonyl)benzonitrile], the EC50 – broadly, the concentration that produces a half-maximal response – was found to be 2.1 µM.
